The values below come from ChEMBL document CHEMBL5725519, “Substituted benzamides and methods of use thereof” (2017).

The nature of assay [1]: (§1) Control sodium currents were measured in 0.5% DMSO. In kind it is cell-based.
In assay [2] the target is Sodium channel protein type 9 subunit alpha (Homo sapiens, UniProt Q15858). The description is as §1. In kind it is cell-based.

pIC50: −log10 of the molar value.

Sodium channel protein type 9 subunit alpha, sequence (Q15858 whole entry): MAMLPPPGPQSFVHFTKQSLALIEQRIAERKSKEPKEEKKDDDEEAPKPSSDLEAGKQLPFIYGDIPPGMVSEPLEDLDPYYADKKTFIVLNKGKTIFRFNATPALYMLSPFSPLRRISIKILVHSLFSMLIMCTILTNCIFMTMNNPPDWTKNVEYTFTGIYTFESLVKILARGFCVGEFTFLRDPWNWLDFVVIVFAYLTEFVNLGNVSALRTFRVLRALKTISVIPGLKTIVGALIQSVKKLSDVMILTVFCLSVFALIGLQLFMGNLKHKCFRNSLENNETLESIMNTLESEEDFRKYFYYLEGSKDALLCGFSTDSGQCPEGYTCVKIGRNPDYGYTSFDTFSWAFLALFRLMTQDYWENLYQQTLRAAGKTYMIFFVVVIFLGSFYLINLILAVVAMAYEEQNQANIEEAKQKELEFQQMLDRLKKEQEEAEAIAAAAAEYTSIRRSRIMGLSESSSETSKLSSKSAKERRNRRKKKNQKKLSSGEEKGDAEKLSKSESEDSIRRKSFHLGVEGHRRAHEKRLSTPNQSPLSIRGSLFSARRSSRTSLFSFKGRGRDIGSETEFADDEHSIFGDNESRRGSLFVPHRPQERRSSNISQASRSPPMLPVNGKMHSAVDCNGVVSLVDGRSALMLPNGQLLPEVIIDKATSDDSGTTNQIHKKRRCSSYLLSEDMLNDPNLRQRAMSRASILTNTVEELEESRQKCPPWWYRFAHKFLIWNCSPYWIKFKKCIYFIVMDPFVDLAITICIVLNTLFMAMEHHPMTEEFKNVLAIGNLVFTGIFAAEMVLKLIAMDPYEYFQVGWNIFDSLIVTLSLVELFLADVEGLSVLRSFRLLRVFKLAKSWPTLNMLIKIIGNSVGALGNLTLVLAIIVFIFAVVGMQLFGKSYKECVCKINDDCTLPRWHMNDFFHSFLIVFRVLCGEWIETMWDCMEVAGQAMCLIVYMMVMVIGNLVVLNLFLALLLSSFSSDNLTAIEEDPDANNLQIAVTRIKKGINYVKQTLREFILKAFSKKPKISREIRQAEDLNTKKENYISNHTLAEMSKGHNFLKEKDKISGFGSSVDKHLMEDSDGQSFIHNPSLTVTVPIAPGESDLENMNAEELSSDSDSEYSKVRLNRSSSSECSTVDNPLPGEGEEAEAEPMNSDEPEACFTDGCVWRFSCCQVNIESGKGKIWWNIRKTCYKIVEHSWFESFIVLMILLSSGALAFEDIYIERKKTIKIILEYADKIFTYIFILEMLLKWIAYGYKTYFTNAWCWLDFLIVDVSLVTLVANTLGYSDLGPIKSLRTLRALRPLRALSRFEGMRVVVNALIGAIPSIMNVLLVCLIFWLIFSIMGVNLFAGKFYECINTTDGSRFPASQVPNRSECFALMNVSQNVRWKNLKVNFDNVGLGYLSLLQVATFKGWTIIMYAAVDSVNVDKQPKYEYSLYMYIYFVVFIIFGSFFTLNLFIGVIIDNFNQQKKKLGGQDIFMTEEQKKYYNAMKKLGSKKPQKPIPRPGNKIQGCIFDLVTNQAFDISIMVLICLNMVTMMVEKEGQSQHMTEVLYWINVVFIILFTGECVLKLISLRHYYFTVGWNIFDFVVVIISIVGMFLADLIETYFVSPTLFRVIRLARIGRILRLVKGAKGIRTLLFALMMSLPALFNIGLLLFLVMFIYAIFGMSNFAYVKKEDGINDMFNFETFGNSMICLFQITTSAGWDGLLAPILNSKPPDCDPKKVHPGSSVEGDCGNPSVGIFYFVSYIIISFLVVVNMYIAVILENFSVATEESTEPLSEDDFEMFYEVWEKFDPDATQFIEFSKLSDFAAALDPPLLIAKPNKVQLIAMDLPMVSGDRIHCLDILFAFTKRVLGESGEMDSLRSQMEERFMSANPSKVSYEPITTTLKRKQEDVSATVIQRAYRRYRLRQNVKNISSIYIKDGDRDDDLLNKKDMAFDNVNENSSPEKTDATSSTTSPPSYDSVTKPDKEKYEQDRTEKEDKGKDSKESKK

As usually defined, the pIC50 is −log10 of the IC50, conventionally taken in molar units. In assay [1], `CS(=O)(=O)NC(=O)c1cc(C2CC2)c(OCC2CCN(Cc3ccc(Cl)c(C(F)(F)F)c3)CC2)cc1F` had a pIC50 of 6.77.
In assay [2], `O=C(NS(=O)(=O)N1CCC1)c1cc(C2CC2)c(OCC2CC3CCC(C2)N3C(c2ccccc2)c2ccccc2)cc1F` (configuration not stated) showed a pIC50 of 8.27.
